Patent publication US10294202B2, “Pyrrolidinones as herbicides” (FMC Corporation, priority 2013, dated 2019)
Like-named read-outs stand apart in the source and are kept apart here.

Assays:
barnyardgrass [1] = test: Test B flooded paddy test; assay type: in vivo, Echinochloa crus-galli; conditions: 250 g ai/ha, Flood; scale of 0 to 100 where 0 is no effect and 100 is complete control
In short: (§1)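 2-leaf plants; flood 3 cm over soil; compound into paddy water; depth held. Greenhouse 13–15 d. Visual rating vs controls, 0 (no effect) to 100 (complete control); dash = not tested.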

corn = test: Test A pre-/postemergence herbicide test; assay type: in vivo, Zea mays; conditions: for Corn plant response rating: Preemergence, visual rating on 0 to 100 scale (0 no effect, 100 complete control)
In short: (§2)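 Approximately 10 days after treatment in the greenhouse, plants were compared with untreated controls and given a 0–100 visual injury rating. Applications: preemergence directed soil spray; postemergence on 2–10 cm plants at the one- to two-leaf stage.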

sedge, umbrella = test: Test B flooded paddy test; assay type: in vivo, Cyperus difformis; conditions: 250 g ai/ha, Flood; scale of 0 to 100 where 0 is no effect and 100 is complete control
In short: as §1

rice = test: Test B flooded paddy test; assay type: in vivo, Oryza sativa; conditions: 250 g ai/ha, Flood; scale of 0 to 100 where 0 is no effect and 100 is complete control
In short: as §1

morningglory = test: Test A pre-/postemergence herbicide test; assay type: in vivo, Ipomoea spp.; conditions: for Morningglory plant response rating: Preemergence, visual rating on 0 to 100 scale (0 no effect, 100 complete control)
In short: as §2

velvetleaf = test: Test A pre-/postemergence herbicide test; assay type: in vivo, Abutilon theophrasti; conditions: for Velvetleaf plant response rating: Preemergence, visual rating on 0 to 100 scale (0 no effect, 100 complete control)
In short: as §2

giant foxtail = test: Test A pre-/postemergence herbicide test; assay type: in vivo, Setaria faberii; conditions: for Foxtail, Giant plant response rating: Preemergence, visual rating on 0 to 100 scale (0 no effect, 100 complete control)
In short: as §2

barnyardgrass [2] = test: Test A pre-/postemergence herbicide test; assay type: in vivo, Echinochloa crus-galli; conditions: for Barnyardgrass plant response rating: Preemergence, visual rating on 0 to 100 scale (0 no effect, 100 complete control)
In short: as §2

crabgrass, large = test: Test A pre-/postemergence herbicide test; assay type: in vivo, Digitaria sanguinalis; conditions: for Crabgrass, Large plant response rating: Preemergence, visual rating on 0 to 100 scale (0 no effect, 100 complete control)
In short: as §2

ducksalad = test: Test B flooded paddy test; assay type: in vivo, Heteranthera limosa; conditions: 250 g ai/ha, Flood; scale of 0 to 100 where 0 is no effect and 100 is complete control
In short: as §1

wheat = test: Test A pre-/postemergence herbicide test; assay type: in vivo, Triticum aestivum; conditions: for Wheat plant response rating: Preemergence, visual rating on 0 to 100 scale (0 no effect, 100 complete control)
In short: as §2

pigweed = test: Test A pre-/postemergence herbicide test; assay type: in vivo, Amaranthus retroflexus; conditions: for Pigweed plant response rating: Preemergence, visual rating on 0 to 100 scale (0 no effect, 100 complete control)
In short: as §2

[3] = Postemergence, 125 g ai/ha, 0 to 100 scale, 0 no effect, 100 complete control
[4] = Postemergence, 500 g ai/ha, 0 to 100 scale (0 no effect, 100 complete control)
[5] = preemergence, 500 g ai/ha, 0 to 100 scale

O=C1NCC(c2ccc(F)c(Cl)c2)C1C(=O)Nc1ccccc1C(F)(F)F (stereo not drawn) [Compound 74, 4-(3-chloro-4-fluorophenyl)-2-oxo-N-[2-(trifluoromethyl)phenyl]-3-pyrrolidinecarboxamide]
80%: pest or weed control at 125 g/ha (giant foxtail; Setaria faberi, post-emergence, 240 h, Postemergence, 125 g ai/ha, 0 to 100 scale, 0 no effect, 100 complete control, read-out: Plant response rating, Foxtail, Giant) | pest or weed control at 500 g/ha (barnyardgrass [2]; Echinochloa crus-galli, post-emergence, 240 h, Postemergence, 500 g ai/ha, 0 to 100 scale (0 no effect, 100 complete control), read-out: Plant response rating, Barnyardgrass) | pest or weed control at 125 g/ha (crabgrass, large; Digitaria sanguinalis, post-emergence, 240 h, Postemergence, 125 g ai/ha, 0 to 100 scale, 0 no effect, 100 complete control, read-out: Plant response rating, Crabgrass, Large)
60%: pest or weed control at 125 g/ha (barnyardgrass [2]; Echinochloa crus-galli, post-emergence, 240 h, Postemergence, 125 g ai/ha, 0 to 100 scale, 0 no effect, 100 complete control, read-out: Plant response rating, Barnyardgrass) | plant injury at 500 g/ha (wheat; Triticum aestivum, post-emergence, 240 h, Postemergence, 500 g ai/ha, 0 to 100 scale (0 no effect, 100 complete control), read-out: Plant response rating, Wheat)
50%: Corn plant response rating (crop injury, 0 = no effect, 100 = complete kill) at 500 g/ha (corn; Zea mays, post-emergence, 240 h, Postemergence, 500 g ai/ha, 0 to 100 scale (0 no effect, 100 complete control)) | pest or weed control at 500 g/ha (velvetleaf; Abutilon theophrasti, post-emergence, 240 h, Postemergence, 500 g ai/ha, 0 to 100 scale (0 no effect, 100 complete control), read-out: Plant response rating, Velvetleaf) | pest or weed control at 500 g/ha (pigweed; Amaranthus retroflexus, pre-emergence, 240 h, preemergence, 500 g ai/ha, 0 to 100 scale, read-out: Plant response rating, Pigweed)
0: Plant response rating, Barnyardgrass (barnyardgrass [1]) | Corn plant response rating (corn; 125 g ai/ha) | Plant response rating, Sedge, Umbrella (sedge, umbrella) | Plant response rating, Rice (rice) | Morningglory plant response rating (morningglory; 125 g ai/ha) | Velvetleaf plant response rating (velvetleaf; 125 g ai/ha) | Wheat plant response rating (wheat; 125 g ai/ha) | Pigweed plant response rating (pigweed; 125 g ai/ha)
90%: pest or weed control at 500 g/ha (giant foxtail; Setaria faberi, post-emergence, 240 h, Postemergence, 500 g ai/ha, 0 to 100 scale (0 no effect, 100 complete control), read-out: Plant response rating, Foxtail, Giant) | pest or weed control at 500 g/ha (giant foxtail; Setaria faberi, pre-emergence, 240 h, preemergence, 500 g ai/ha, 0 to 100 scale, read-out: Plant response rating, Foxtail, Giant) | pest or weed control at 500 g/ha (barnyardgrass [2]; Echinochloa crus-galli, pre-emergence, 240 h, preemergence, 500 g ai/ha, 0 to 100 scale (0 no effect, 100 complete control), read-out: Plant response rating, Barnyardgrass) | pest or weed control at 500 g/ha (crabgrass, large; Digitaria sanguinalis, post-emergence, 240 h, Postemergence, 500 g ai/ha, 0 to 100 scale (0 no effect, 100 complete control), read-out: Plant response rating, Crabgrass, Large) | pest or weed control at 500 g/ha (crabgrass, large; Digitaria sanguinalis, pre-emergence, 240 h, preemergence, 500 g ai/ha, 0 to 100 scale, read-out: Plant response rating, Crabgrass, Large)
30%: pest or weed control at 125 g/ha (velvetleaf; Abutilon theophrasti, post-emergence, 240 h, Postemergence, 125 g ai/ha, 0 to 100 scale, 0 no effect, 100 complete control, read-out: Plant response rating, Velvetleaf)
60: Barnyardgrass plant response rating (barnyardgrass [2]; 125 g ai/ha)
90: Foxtail, Giant plant response rating (giant foxtail; 125 g ai/ha) | Crabgrass, Large plant response rating (crabgrass, large; 125 g ai/ha) | Plant response rating, Ducksalad (ducksalad)
0%: Corn plant response rating (crop injury, 0 = no effect, 100 = complete kill) at 125 g/ha (corn; Zea mays, post-emergence, 240 h, Postemergence, 125 g ai/ha, 0 to 100 scale, 0 no effect, 100 complete control) | Corn plant response rating (crop injury, 0 = no effect, 100 = complete kill) at 500 g/ha (corn; Zea mays, pre-emergence, 240 h, preemergence, 500 g ai/ha, 0 to 100 scale) | pest or weed control at 125 g/ha (morningglory; Ipomoea, post-emergence, 240 h, Postemergence, 125 g ai/ha, 0 to 100 scale, 0 no effect, 100 complete control, read-out: Plant response rating, Morningglory) | pest or weed control at 500 g/ha (morningglory; Ipomoea, post-emergence, 240 h, Postemergence, 500 g ai/ha, 0 to 100 scale (0 no effect, 100 complete control), read-out: Plant response rating, Morningglory) | pest or weed control at 500 g/ha (morningglory; Ipomoea, pre-emergence, 240 h, preemergence, 500 g ai/ha, 0 to 100 scale, read-out: Plant response rating, Morningglory) | pest or weed control at 500 g/ha (velvetleaf; Abutilon theophrasti, pre-emergence, 240 h, preemergence, 500 g ai/ha, 0 to 100 scale, read-out: Plant response rating, Velvetleaf) | plant injury at 125 g/ha (wheat; Triticum aestivum, post-emergence, 240 h, Postemergence, 125 g ai/ha, 0 to 100 scale, 0 no effect, 100 complete control, read-out: Plant response rating, Wheat) | plant injury at 500 g/ha (wheat; Triticum aestivum, pre-emergence, 240 h, preemergence, 500 g ai/ha, 0 to 100 scale, read-out: Plant response rating, Wheat) | pest or weed control at 125 g/ha (pigweed; Amaranthus retroflexus, post-emergence, 240 h, Postemergence, 125 g ai/ha, 0 to 100 scale, 0 no effect, 100 complete control, read-out: Plant response rating, Pigweed) | pest or weed control at 500 g/ha (pigweed; Amaranthus retroflexus, post-emergence, 240 h, Postemergence, 500 g ai/ha, 0 to 100 scale (0 no effect, 100 complete control), read-out: Plant response rating, Pigweed)

COc1cccc(NC(=O)C2C(=O)NCC2c2ccc(F)c(F)c2)n1 (stereo not drawn) [Compound 58]
90: Plant response rating, Crabgrass, Large (crabgrass, large; [5])
40: Plant response rating, Crabgrass, Large (crabgrass, large; [3])
70: Plant response rating, Foxtail, Giant (giant foxtail; [4]) | Crabgrass, Large plant response rating (crabgrass, large; 125 g ai/ha)
20: Plant response rating, Foxtail, Giant (giant foxtail; [3]) | Foxtail, Giant plant response rating (giant foxtail; 125 g ai/ha) | Plant response rating, Barnyardgrass (barnyardgrass [2]; preemergence, 500 g ai/ha, 0 to 100 scale (0 no effect, 100 complete control))
80: Plant response rating, Foxtail, Giant (giant foxtail; [5]) | Plant response rating, Crabgrass, Large (crabgrass, large; [4])
0: Plant response rating, Barnyardgrass (barnyardgrass [1]) | Plant response rating, Corn (corn; [3]) | Plant response rating, Corn (corn; [4]) | Corn plant response rating (corn; 125 g ai/ha) | Plant response rating, Corn (corn; [5]) | Plant response rating, Sedge, Umbrella (sedge, umbrella) | Plant response rating, Rice (rice) | Plant response rating, Morningglory (morningglory; [3]) | Plant response rating, Morningglory (morningglory; [4]) | Morningglory plant response rating (morningglory; 125 g ai/ha) | Plant response rating, Morningglory (morningglory; [5]) | Plant response rating, Velvetleaf (velvetleaf; [3]) | Plant response rating, Velvetleaf (velvetleaf; [4]) | Velvetleaf plant response rating (velvetleaf; 125 g ai/ha) | Plant response rating, Velvetleaf (velvetleaf; [5]) | Plant response rating, Barnyardgrass (barnyardgrass [2]; [3]) | Plant response rating, Barnyardgrass (barnyardgrass [2]; [4]) | Barnyardgrass plant response rating (barnyardgrass [2]; 125 g ai/ha) | Plant response rating, Ducksalad (ducksalad) | Plant response rating, Wheat (wheat; [3]) | Plant response rating, Wheat (wheat; [4]) | Wheat plant response rating (wheat; 125 g ai/ha) | Plant response rating, Wheat (wheat; [5]) | Plant response rating, Pigweed (pigweed; [3]) | Plant response rating, Pigweed (pigweed; [4]) | Pigweed plant response rating (pigweed; 125 g ai/ha) | Plant response rating, Pigweed (pigweed; [5])
